Assay results: patent US12240857B2 (priority 2017, dated 2025)

What was measured:
[1] = tested on: BDBV mucin-domain-deleted glycoprotein pseudotyped VSV; experiment: microbe, parasite or virus in culture; assay type: cell-based, Bundibugyo ebolavirus; settings: Vesicular stomatitis virus, Vero, read-out: EC50 BDBV
[2] = in vitro; settings: African green monkey, CC50
[3] = tested on: EBOV mucin-domain-deleted glycoprotein pseudotyped VSV; experiment: microbe, parasite or virus in culture; assay type: cell-based, Zaire ebolavirus; settings: Zaire ebolavirus, Vero, read-out: EC50 EBOV

SMILES	EC50 [1] [nM]	CC50 [2] [nM]	EC50 [3] [nM]
COc1ccc(C23CC4CC(CC(C(=O)NC5CCNCC5)(C4)C2)C3)cc1 [Example A67]	410	> 10000	390
O=C(NC1CCNCC1)C12CC3CC(C1)CC(c1ccc(Cl)cc1)(C3)C2 [Example A69]	240	22400	220
O=C(CC12CC3CC(C1)CC(c1ccccc1)(C3)C2)NC1CCNCC1 [Example A70]	190	> 50000	490
CC12CC3CC(C(=O)NC4CNC4)(C1)CC(c1ccccc1)(C3)C2 (stereo not drawn) [Example A72]	290	17400	280
CC12CC3(C)CC(C(=O)NC4CCNCC4)(C1)CC(c1ccccc1)(C2)C3 [Example A73]	370	13000	320
O=C(NC1CCNCC1)C12CC3CC(C1)CC(c1ccc(O)cc1)(C3)C2 [Example A74]	> 1000	14000	1720
O=C(NC1CCNCC1)C12CC3CC(C1)CC(c1ccc(F)cc1)(C3)C2 [Example A75]	300	17700	300
CC12CC3CC(C(=O)N[C@H]4CC[C@@H](N)CC4)(C1)CC(c1ccccc1)(C3)C2 (stereo partly drawn) [Example A77]	220	8700	120
CC12CC3CC(C(=O)NCCN)(C1)CC(c1ccccc1)(C3)C2 (stereo not drawn) [Example A79]	290	4200	260
C[C@H]1CN(C(=O)C23CC4CC(C)(C2)CC(c2ccccc2)(C4)C3)CCN1 (stereo partly drawn) [Example A82]	160	4500	130
C[C@H]1CNCCN1C(=O)C12CC3CC(C)(C1)CC(c1ccccc1)(C3)C2 (stereo partly drawn) [Example A83]	180	12900	100
N[C@H]1CC[C@H](NC(=O)C2C3CC4CC2CC(c2ccccc2)(C4)C3)CC1 (stereo partly drawn) [Example A84]	110	9000	146
C[C@@H]1CN(C(=O)C23CC4CC(C)(C2)CC(c2ccccc2)(C4)C3)C[C@H](C)N1 (stereo partly drawn) [Example A86]	180	3900	155
N[C@H]1CC[C@H](NC(=O)C23CC4CC2CC(c2ccccc2)(C4)C3)CC1 (stereo partly drawn) [Example A87]	190	1400	140
O=C(NC1CCNCC1)C12CC3CC1CC(c1ccccc1)(C3)C2 (stereo not drawn) [Example A88]	500	12500	360
CC12CC3CC(C(=O)NC4CC5(CNC5)C4)(C1)CC(c1ccccc1)(C3)C2 (stereo not drawn) [Example A89]	880	40700	250
CC12CC3CC(C(=O)NC4CC5(CC(N)C5)C4)(C1)CC(c1ccccc1)(C3)C2 (stereo not drawn) [Example A90]	200	59000	50
CC12CC3CC(C(=O)N4CC5(CC(N)C5)C4)(C1)CC(c1ccccc1)(C3)C2 (stereo not drawn) [Example A91]	190	17400	120
CC12CC3CC(C(=O)NC4C[C@H]5CC[C@H](C4)N5)(C1)CC(c1ccccc1)(C3)C2 (stereo partly drawn) [Example A92]	700	10800	190
CC12CC3CC(C(=O)N4C5CCC4CC(N)C5)(C1)CC(c1ccccc1)(C3)C2 (stereo not drawn) [Example A93]	360	12200	210
N[C@H]1CC[C@H](NC(=O)C23CC4CC(C2)CC(C(F)(F)F)(C4)C3)CC1 [Example A94]	880	5100	1000
CC12CC3CC(C(=O)NCC4CCNCC4)(C1)CC(c1ccccc1)(C3)C2 (stereo not drawn) [Example A95]	970	23100	490
CC12CC3CC(C(=O)N[C@H]4CC[C@H](CN)CC4)(C1)CC(c1ccccc1)(C3)C2 (stereo partly drawn) [Example A96]	80	11600	30
N[C@H]1CC[C@H](NC(=O)CC2(c3ccccc3)C3CC4CC(C3)CC2C4)CC1 (stereo partly drawn) [Example A97]	250	100000	340
N[C@H]1CC[C@@H](NC(=O)CC2(c3ccccc3)C3CC4CC(C3)CC2C4)CC1 (stereo partly drawn) [Example A98]	580	11300	1160
O=C(CC1(c2ccccc2)C2CC3CC(C2)CC1C3)NC1CCNCC1 (stereo not drawn) [Example A99]	190	26700	690

SMILES	EC50 [1] [nM]	CC50 [2] [nM]	EC50 [3] [nM]
Cc1cccc(C23CC4CC(CC(C(=O)N[C@H]5CC[C@H](N)CC5)(C4)C2)C3)c1 [Example A100]	180	6300	220
CC12CC3CC(C(=O)N[C@H]4[C@@H]5CNC[C@@H]54)(C1)CC(c1ccccc1)(C3)C2 (stereo partly drawn) [Example A102]	210	29000	120
CC12CC3CC(C(=O)Nc4ccc(CN)cc4)(C1)CC(c1ccccc1)(C3)C2 (stereo not drawn) [Example A103]	280	7900	70
CN(C(=O)C12CC3CC(C)(C1)CC(c1ccccc1)(C3)C2)C1CCNCC1 (stereo not drawn) [Example A104]	220	66000	60
CC(C)C12CC3CC(C(=O)N[C@H]4CC[C@H](N)CC4)(CC(c4ccccc4)(C3)C1)C2 (stereo partly drawn) [Example A105]	1050	35000	140
C[C@H]1C[C@H](NC(=O)C23CC4CC(C)(C2)CC(c2ccccc2)(C4)C3)CCN1 (stereo partly drawn) [Example A107]	300	14700	46
CC12CC3CC(C(=O)N[C@@H]4CCNC[C@H]4F)(C1)CC(c1ccccc1)(C3)C2 (stereo partly drawn) [Example A108]	210	16500	25
CC12CC3CC(C(=O)NC4CCNCC4(F)F)(C1)CC(c1ccccc1)(C3)C2 (stereo not drawn) [Example A109]	930	37000	80
C[C@H]1C[C@@H](NC(=O)C23CC4CC(C)(C2)CC(c2ccccc2)(C4)C3)CCN1 (stereo partly drawn) [Example A110]	190	17500	21
CC12CC3CC(C(=O)NC4CCNCC4(C)C)(C1)CC(c1ccccc1)(C3)C2 (stereo not drawn) [Example A111]	150	10700	18
CC1CNCCC1NC(=O)C12CC3CC(C)(C1)CC(c1ccccc1)(C3)C2 (stereo not drawn) [Example A112]	260	7200	37
COC(=O)C12CC3CC(C(=O)N[C@H]4CC[C@H](N)CC4)(C1)CC(c1ccccc1)(C3)C2 (stereo partly drawn) [Example A115]	> 1000	59000	980
CC12CC3CC(C(=O)Nc4ccncc4)(C1)CC(c1ccccc1)(C3)C2 (stereo not drawn) [Example A201, 3-methyl-5-phenyl-N-(pyridin-4-yl)adamantane-1-carboxamide]	> 1000	16400	1100
CC12CC3CC(C(=O)NCc4ncc[nH]4)(C1)CC(c1ccccc1)(C3)C2 (stereo not drawn) [Example A202, N-(1H-imidazol-2-ylmethyl)-3-methyl-5-phenyladamantane-1-carboxamide]	960	41500	590
CC12CC3CC(C(=O)Nc4ccnc(N)c4)(C1)CC(c1ccccc1)(C3)C2 (stereo not drawn) [Example A203, N-(2-aminopyridin-4-yl)-3-methyl-5-phenyladamantane-1-carboxamide]	1020	3900	910
[O-][S+](NC1CCNCC1)C12CC3CC(CC(C3)C1)C2 (stereo not drawn) [Example A204, N-(piperidin-4-yl)adamantane-1-sulfinamide]	> 1000	> 100000	> 1000
O=S(=O)(NC1CCNCC1)C12CC3CC(CC(C3)C1)C2 [Example A205, N-(piperidin-4-yl)adamantane-1-sulfonamide]	> 1000	37000	> 1000
CN1CCN(CC23CC4CC(C2)CC(c2ccccc2)(C4)C3)CC1 [Example C1]	206	5800	180
CC12CC3CC(CNC4CCNCC4)(C1)CC(c1ccccc1)(C3)C2 (stereo not drawn) [Example C3, N-((3-methyl-5-phenyladamantan-1-yl)methyl)piperidin-4-amine]	210	1800	234
CC1CCN(CCCOc2ccc(C34CC5CC(CC(C5)C3)C4)cc2)CC1 [Example C4, 1-(3-(4-(adamantan-1-yl)phenoxy)propyl)-4-methylpiperidine]	400	7200	140
c1cc(C23CC4CC(CC(C4)C2)C3)ccc1OCCCN1CCCCC1 [Example C5, 1-(3-(4-(adamantan-1-yl)phenoxy)propyl)piperidine]	550	14300	140
CN1CCN(CCCOc2ccc(C34CC5CC(CC(C5)C3)C4)cc2)CC1 [Example C6, 1-(3-(4-(adamantan-1-yl)phenoxy)propyl)-4-methylpiperazine]	640	3800	120
CC1CCN(CC(O)CCOc2ccc(C34CC5CC(CC(C5)C3)C4)cc2)CC1 (stereo not drawn) [Example C7, 4-(4-(adamantan-1-yl)phenoxy)-1-(4-methylpiperidin-1-yl)butan-2-ol]	770	4100	470
OC(CCOc1ccc(C23CC4CC(CC(C4)C2)C3)cc1)CN1CCCCC1 (stereo not drawn) [Example C8, 4-(4-(adamantan-1-yl)phenoxy)-1-(piperidin-1-yl)butan-2-ol]	290	1300	140
CN1CCN(CC(O)CCOc2ccc(C34CC5CC(CC(C5)C3)C4)cc2)CC1 (stereo not drawn) [Example C9, 4-(4-(adamantan-1-yl)phenoxy)-1-(4-methylpiperazin-1-yl)butan-2-ol]	990	8300	660
